This is an account of results in PubChem BioAssay (NCI).

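Each compound was tested at five concentrations against cells in 96-well plates for 48 hours. Here, GI50 denotes the concentration required for 50% inhibition of growth. TGI marks complete inhibition of growth.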

Assay in all cases: NCI-60 cell line screen, 48 h
Assay [1] concerns OVCAR-8 ovarian.
For assay [2], the system named is PC-3 prostate.
For assay [3], the system named is NCI-H226 lung.
The test system of assay [4] is HCC-2998 colon.
The subject of assay [5] is MCF7 breast.
Assay [6] relates to OVCAR-4 ovarian.
The subject of assay [7] is CAKI-1 renal.
Assay [8] has as its system TK-10 renal.
Assay [9] has as its system HCT-116 colon.
The subject of assay [10] is MDA-MB-435.

Take `Nc1ncc(-c2cccc(S(N)(=O)=O)c2)c2scc(-c3ccc(F)c(Cl)c3)c12`: the GI50 in assay [1] was 6.38 µM; in assay [2], 6.83 µM; in assay [3], 5.71 µM; in assay [4], 6.7 µM; in assay [5], 5.93 µM; in [6], 6.65 µM. Besides, the GI50 in [7] is 5.51 µM; in [8] it was 6.58 µM; in assay [9], 4.34 µM; in assay [10], 4.68 µM. In addition, the TGI was greater than 22.6 µM in [1]; greater than 20.6 µM in assay [2]; 15.1 µM in assay [3]; 13.3 µM in assay [4]; 15.9 µM in [5]; greater than 23.7 µM in assay [6]. In addition, the TGI in assay [7] came to 21.4 µM; in assay [8], 16.4 µM; in assay [9], 8.29 µM; in assay [10] it was 10.1 µM.

Turning to `COc1c(B(O)O)cc(F)cc1-c1nc2ccc3[nH]ncc3c2c2c1CCCC2`, the GI50 is 1.55 µM in assay [1]; 1.9 µM in assay [2]; 2 µM in assay [3]; 2.08 µM in assay [4]; 1.53 µM in assay [5]; 3.8 µM in [6]. In addition, the GI50 is less than 0.01 µM in assay [7], less than 0.01 µM in [8], 0.322 µM in [9] and 1.78 µM in assay [10]. The TGI in assay [1] was 17.7 µM; in assay [2], 11.3 µM; in assay [3], 7.85 µM; in assay [4] it was 5.61 µM; in [5], 6.57 µM; in [6], 12.1 µM. The TGI in assay [7] came out at 0.134 µM; in [8], 9.43 µM; in assay [9], 10.3 µM; in [10], 3.6 µM.

Regarding `COc1ccc2ccc3oc([N+](=O)[O-])cc3c2c1`, the GI50 in [1] is 0.216 µM; in [2], 1.08 µM; in assay [3], 0.296 µM; in [4], 0.171 µM; in assay [5], 0.226 µM; in assay [6], 0.828 µM. Also, the GI50 in assay [7] was 0.186 µM; in [8] it was 0.56 µM; in assay [9] it was 0.189 µM; in [10], 0.116 µM. Moreover, the TGI in assay [1] is 3.27 µM; in assay [2] it was 7.9 µM; in assay [3], 3.22 µM; in assay [4], 0.416 µM; in assay [5], 2.34 µM; in [6] it was 5.41 µM. The TGI in assay [7] was 0.514 µM; in [8], 6.52 µM; in [9] it was 1.21 µM; in [10], 0.247 µM.

Take `COc1ccccc1C(=O)N(C)c1ccc(Cl)c(C(=O)OC(C)C)c1`: the TGI in [1], in [2], in assay [3], in [4], in [5] and in [6] was greater than 100 µM in each case. Further, the TGI in assay [7], in assay [8], in assay [9] and in assay [10] was greater than 100 µM throughout.

On to `Cc1c([N+](=O)[O-])oc2ccc3ccccc3c12`, for which the TGI in assay [1] is greater than 100 µM; in [2] it was greater than 100 µM; in [3], greater than 100 µM; in assay [4] it was greater than 100 µM; in assay [5], 93.7 µM; in [6], greater than 100 µM. Also, the TGI in [7] was greater than 100 µM; in assay [8] it was greater than 100 µM; in assay [9], 34.2 µM; in assay [10], greater than 100 µM.

In the case of `C=C1C(=O)O[C@H]2[C@H]1CC/C(COC(=O)NCc1ccc(Cn3c(=O)sn(-c4ccccc4)c3=O)cc1)=C\CC[C@@]1(C)O[C@@H]21`, the GI50 in assay [1] is 2.83 µM; in assay [2], 2.36 µM; in assay [3] it was 14.8 µM; in [4] it was 1.99 µM; in [5], 1.59 µM; in assay [6], 2.74 µM. Also, the GI50 was 2.49 µM in assay [7], 2.21 µM in assay [8], 1.52 µM in [9] and 2.07 µM in [10]. In addition, the TGI came out at 8.55 µM in [1]; 5.63 µM in assay [2]; 35.2 µM in assay [3]; 3.82 µM in assay [4]; 3.55 µM in assay [5]; 8.19 µM in assay [6]. The TGI in assay [7] is 6.1 µM; in [8], 4.05 µM; in [9], 2.95 µM; in [10], 4.2 µM.

In the case of `CC(C)=CCCC(C)C1=C(O)C(=O)C(C)=CC1=O` (stereo not given), the TGI was 40.9 µM in assay [1]; 33 µM in [2]; 47.5 µM in [3]; 27.9 µM in assay [4]; 31.1 µM in assay [5]; 17.4 µM in assay [6]. The TGI turned out to be 15.1 µM in [7], 23.5 µM in assay [8], 12.8 µM in assay [9] and 43.5 µM in assay [10].
